Test results taken from PMC12663137 (Nature Communications, 2025).
Where “and” joins values, the source holds several entries; their conditions need not be identical. Equal entries are not always repeated.

Columns and labels:
SV2AWT = target: T1, SV2AWT (Homo sapiens, UniProt Q7L0J3); assay: Competitive displacement of 10 nM 3H-UCB-J, SV2AWT membranes (Fig. 1A); assay type: binding; settings: read-out: Binding of 3H-UCB-J (%), SV2A_WT
T1 construct: expressed in transfected cells; host or cells: HEK293 (ATCC CRL-1573), crude membranes
Protocol: (§1) Ligand binding studies were carried out using crude membranes prepared from HEK293 cells (ATCC, CRL-1573) overexpressing mVenus-SV2AWT or SV2AEM. Membranes were prepared either from transiently transfected cells or from baculovirus-infected cells as described previously. Cells were washed with DPBS (Ca^2+ and Mg^2+ free), followed by resuspending in cold SH buffer (10 mM HEPES-Tris pH 7.4, 320 mM sucrose) containing protease inhibitor cocktail (MedChemExpress) to a density of 10^7 cells/ml. This cell suspension was homogenized by passing through a bead homogenizer (Isobiotec) with 10-micron clearance bead on ice. The lysate was then centrifuged at 4000 × g for 5 min at 4 °C, and the supernatant was aliquoted, frozen in liquid nitrogen, and stored at −80 °C. The mVenus fluorescence estimated using fluorescence size-exclusion chromatography (FSEC) was used to normalize expression levels of mVenus-SV2A mutants studied as detailed previously. For all binding studies, membranes containing […] protein (estimated by BCA method) per reaction were used.
(§2) To obtain dose-response curves of studied SV2A ligands, membranes diluted in 0.2 ml binding buffer (50 mM Tris-Cl, pH 7.4, and 2 mM MgCl2) were incubated with indicated concentrations of ligands for 30 min at 4 °C. […] The binding reaction was arrested by trapping membranes on Unifilter-GF/C 96-well filter plates (Revvity) pre-soaked with 0.1%(w/v) polyethyleneimine (PEI). Membranes were then washed four times with 0.2 ml of cold binding buffer, dried, and 40 µl of scintillation liquid was added to each well. Radioactivity was monitored in MicroBeta2 plate counter (Revvity). Estimates for IC50 were obtained from fitting the data to three-parameter dose-response curves using GraphPad Prism 10.

SV2AEM = target: T2, SV2AEM (Homo sapiens, UniProt Q7L0J3); assay: Competitive displacement of 10 nM 3H-UCB-J, SV2AEM membranes (Fig. 1A); assay type: binding
T2 construct: expressed in transfected cells; host or cells: HEK293 (ATCC CRL-1573), crude membranes (transient transfection or baculovirus)
Protocol: as §1, §2

[1] = target: T3, SV2A WT, W300A, W666A, D670A (Homo sapiens, UniProt Q7L0J3); assay: Displacement of 10 nM 3H-UCB-J by levetiracetam, binding site mutations (Fig. 2B); settings: read-out: Binding of 3H-UCB-J (%), WT
T3 construct: expressed in transfected cells; host or cells: HEK293 (ATCC CRL-1573), crude membranes
Protocol: as §1, with “Membranes” for “Ligand binding studies were carried out using crude membranes prepared from HEK293 cells (ATCC, CRL-1573) overexpressing mVenus-SV2AWT or SV2AEM. Membranes”
as §2

[2] = test system: SV2A WT, W300A, W666A, D670A; assay: as above; set-up: species or system human; settings: Fig. 2B
Protocol: as §1, with “Membranes” for “Ligand binding studies were carried out using crude membranes prepared from HEK293 cells (ATCC, CRL-1573) overexpressing mVenus-SV2AWT or SV2AEM. Membranes”
as §2

SV2A WT and mutants [3] = target: T4, SV2A WT and mutants (Homo sapiens, UniProt Q7L0J3); assay: Relative binding of levetiracetam: 3H-UCB-J (10 nM) binding in presence of 10 µM levetiracetam (Fig. 2C); settings: WT; 10 µM levetiracetam; SV2AWT defined as 100%
T4 construct: expressed in transfected cells; host or cells: HEK293 (ATCC CRL-1573), crude membranes
Protocol: (§3) Data are shown as mean ± s.d.; n = 6 biological replicates. […] Data shown as mean ± s.d.; n = 6 biological replicates. D Superposition of SV2A-apo (gray) and SV2A–Lev (green), showing helix-to-loop transition and inward movement of TM1 in levetiracetam-bound state. […] Source data for (B, C) are provided as a Source data file.
as §1

SV2A WT and mutants [4] = target: T5, SV2A WT and mutants (Homo sapiens, UniProt Q7L0J3, C693A); assay: as above; settings: C693A; 10 µM levetiracetam; SV2AWT defined as 100%
T5 construct: expressed in transfected cells; host or cells: HEK293 (ATCC CRL-1573), crude membranes
Protocol: as §3, §1

SV2A WT and mutants [5] = target: T6, SV2A WT and mutants (Homo sapiens, UniProt Q7L0J3, N690A); assay: as above; settings: N690A
T6 construct: expressed in transfected cells; host or cells: HEK293 (ATCC CRL-1573), crude membranes
Protocol: as §3, §1

T3 sequence (Q7L0J3 whole entry W300A/W666A/D670A): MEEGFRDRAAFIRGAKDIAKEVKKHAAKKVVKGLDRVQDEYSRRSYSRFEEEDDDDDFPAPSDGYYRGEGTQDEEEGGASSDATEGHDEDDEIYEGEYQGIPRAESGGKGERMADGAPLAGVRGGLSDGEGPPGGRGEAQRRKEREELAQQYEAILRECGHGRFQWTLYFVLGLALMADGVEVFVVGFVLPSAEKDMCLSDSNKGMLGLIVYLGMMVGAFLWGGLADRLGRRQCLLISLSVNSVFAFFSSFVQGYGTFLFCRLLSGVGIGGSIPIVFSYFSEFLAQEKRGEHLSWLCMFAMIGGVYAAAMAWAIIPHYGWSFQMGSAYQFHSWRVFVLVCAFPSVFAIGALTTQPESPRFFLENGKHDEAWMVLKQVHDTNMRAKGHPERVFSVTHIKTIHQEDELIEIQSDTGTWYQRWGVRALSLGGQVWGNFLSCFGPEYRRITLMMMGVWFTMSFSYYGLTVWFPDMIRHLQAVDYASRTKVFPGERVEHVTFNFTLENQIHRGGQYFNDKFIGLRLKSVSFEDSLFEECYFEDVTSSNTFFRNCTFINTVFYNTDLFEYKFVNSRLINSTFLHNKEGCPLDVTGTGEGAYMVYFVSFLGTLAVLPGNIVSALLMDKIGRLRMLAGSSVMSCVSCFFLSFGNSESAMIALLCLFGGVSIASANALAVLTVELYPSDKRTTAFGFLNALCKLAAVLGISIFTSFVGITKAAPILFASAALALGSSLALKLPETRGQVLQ
T4 sequence (Q7L0J3 whole entry, change not shown): as the sequence (Q7L0J3 whole entry W300A/W666A/D670A) above, with A300W, A666W, A670D counted along it
T1 sequence (Q7L0J3 whole entry): as the sequence (Q7L0J3 whole entry W300A/W666A/D670A) above, with A300W, A666W, A670D counted along it
T2 sequence (Q7L0J3 141-742): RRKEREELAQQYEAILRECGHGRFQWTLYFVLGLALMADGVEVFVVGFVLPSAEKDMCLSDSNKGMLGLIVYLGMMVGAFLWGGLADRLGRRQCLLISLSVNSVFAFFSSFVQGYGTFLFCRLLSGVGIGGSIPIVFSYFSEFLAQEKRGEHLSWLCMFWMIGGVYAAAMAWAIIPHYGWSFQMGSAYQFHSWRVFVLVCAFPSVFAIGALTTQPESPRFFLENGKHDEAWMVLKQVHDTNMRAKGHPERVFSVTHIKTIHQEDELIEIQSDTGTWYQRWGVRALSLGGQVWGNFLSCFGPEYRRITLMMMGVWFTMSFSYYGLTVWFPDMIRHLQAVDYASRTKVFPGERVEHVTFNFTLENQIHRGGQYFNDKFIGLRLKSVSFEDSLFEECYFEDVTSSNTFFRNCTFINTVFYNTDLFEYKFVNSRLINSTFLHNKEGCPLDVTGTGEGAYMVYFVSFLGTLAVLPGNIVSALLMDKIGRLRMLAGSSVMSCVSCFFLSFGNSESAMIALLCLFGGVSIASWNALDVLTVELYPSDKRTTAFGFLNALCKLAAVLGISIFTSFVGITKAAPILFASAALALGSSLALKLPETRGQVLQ
T6 sequence (Q7L0J3 whole entry N690A): as the sequence (Q7L0J3 whole entry W300A/W666A/D670A) above, with A300W, A666W, A670D, N690A counted along it
T5 sequence (Q7L0J3 whole entry C693A): as the sequence (Q7L0J3 whole entry W300A/W666A/D670A) above, with A300W, A666W, A670D, C693A counted along it

SMILES: CC[C@@H](C(N)=O)N1CCCC1=O [levetiracetam]
- remaining activity at 300 µM (SV2AWT; Log [Levetiracetam] (M) -3.523): 10.8%
- remaining activity at 100 µM (SV2AWT; Log [Levetiracetam] (M) -4.000): 22.8%
- remaining activity at 10 µM (SV2AWT; Log [Levetiracetam] (M) -5.000): 66.1%
- remaining activity at 1 µM (SV2AWT; Log [Levetiracetam] (M) -6.000): 95%
- remaining activity at 0.1 µM (SV2AWT; Log [Levetiracetam] (M) -7.000): 95.2%
- remaining activity at 0.01 µM (SV2AWT; Log [Levetiracetam] (M) -8.000): 92.5%
- IC50 (SV2AEM): 9.5 µM
- binding response of SV2AEM vs wild-type SV2A (SV2AEM; competition with 3H-UCB-J): comparable to those of wild-type SV2A
- remaining activity at 10 µM (SV2AEM; read-out: Binding of 3H-UCB-J (%), SV2A_EM, Log [Levetiracetam] (M) -5.000): 53.7%
- 3H-UCB-J binding at 1000 µM ([1]; Log [Levetiracetam] (M) -3.000): 6.22%
- 3H-UCB-J binding at 100 µM ([1]; Log [Levetiracetam] (M) -4.000): 31.9%
- 3H-UCB-J binding at 3 µM ([1]; Log [Levetiracetam] (M) -5.523): 73.5%
- 3H-UCB-J binding at 1 µM ([1]; Log [Levetiracetam] (M) -6.000): 84.4%
- reduction of levetiracetam binding by mutating Trp300, Trp666, Asp670 [2]: ~1000 fold
- Levetiracetam Binding (%) (SV2A WT and mutants [3]): 102.09% and 117.44% and 93.09% and 74.67% and 113.64% and 99.03%
- Levetiracetam Binding (%) (SV2A WT and mutants [4]): 135.59% and 126.18% and 71.93% and 77.61% and 128.23% and 117.60%
- effect of mutation on levetiracetam binding (SV2A WT and mutants [5]): enhances levetiracetam binding
- Levetiracetam Binding (%) (SV2A WT and mutants [5]; 10 µM levetiracetam, SV2AWT defined as 100%): 143.32% and 133.74% and 159.43% and 149.90% and 155.36% and 156.86%
